Tests used:
[1] = Plasma concentration following subcutaneous or intravenous administration; format: in vivo, male C57BL/6 mice
Method: Elobixibat was administered to male C57BL/6 mice (n=5) as a subcutaneous injection at a dose of 3 or 10 mg/kg or as an intravenous injection at a dose of 1 mg/kg (single injections), or as repeated subcutaneous injections at a dose of 1 mg/kg at day 1 and day 5. Elobixibat was formulated in 70% PEG400; 10% ethanol; and 20% water and given at a dosing volume of 5 mL/kg subcutaneously or 1 mL/kg intravenously. Blood samples were collected after 0.25, 0.5, 1, 2, 4, 6, 8 and 24 hours following subcutaneous administration and after 0.083, 0.25, 0.5, 1, 2, 4, 6, 8 and 24 hours following intravenous administration. Blood samples were taken from saphenous vein. 0.2% EDTA was used as the anticoagulant. The samples were analyzed by a discovery grade bioanalytical method developed for the estimation of elobixibat in plasma, using an LC-MS/MS system.
The results for single subcutaneous (3 or 10 mg/kg) and intravenous (1 mg/kg) administrations are shown in FIG. 1, and the results for repeated subcutaneous administrations (1 mg/kg at day 1 and day 5) are shown in FIG. 2.

DDC mice = experiment: DDC in vivo model of cholestatic disease: serum chemistries; design: species or system male C57BL/6J WT mice
Text: (§1) Chronic feeding of 3,5-diethoxycarbonyl-1,4-dihydrocollidine (DDC) was used as an in vivo model for cholestatic liver injury. Chronic feeding of DDC produces an intraductal porphyrin plug which leads to ductular obstruction contributing to damage of biliary epithelia. The time course of the DDC model usually ranges from 1 to 6 weeks, depending on the severity of the cholangiopathy that the study requires. Chronic feeding of DDC in mice reproduces the main histopathological hallmarks of human cholestatic disease such as (1) remodeling of biliary compartments giving rise to ductular reaction, (2) periductular fibrosis, and (3) inflammatory infiltrate (Mariotti et al., Biochim Biophys Acta Mol Basis Dis 2018, vol. 1864, p. 1254-1261; Pose et al., Methods Mol. Biol. 2019, vol. 1981, p. 249-257).
(§2) Male C57BL/6J WT mice of 8 weeks old were used. After completion of quarantine and acclimatization period, animals were randomized based on body weight into experimental groups (n=7-9/group). Animals were fed chow (control diet) or chow plus 0.1% DDC (DDC diet) for 14 days, and treated once daily with vehicle (s.c.) or the ASBT inhibitor elobixibat at a dose of 0.3, 1.0 or 3.0 mg/kg (s.c.), as shown in Table 1. Animals were weighed at days 7, 11 and 14. Blood samples were collected at day 7. On day 11, animals were moved to individual cages with wire bottom for fecal collection. Blood, urine, tissue samples and 3-day fecal samples were collected at day 14.
Endpoints measured at the end of the study include fecal bile acid excretion, urine and serum bile acid concentration and composition, and serum chemistries reflecting liver status.

[2] = system: KIM-1 (kidney injury molecule-1); experiment: DDC model: mRNA expression of renal proximal tubule cell injury marker KIM-1; format: in vivo, male C57BL/6J WT mice; conditions: DDC cholestatic mice, s.c. elobixibat versus vehicle, 14 days (FIG. 6)
Text: as §1
as §2, with “Blood, urine, tissue samples and 3-day fecal samples were collected at day 14.” left out

LCN2 (lipocalin-2) = experiment: DDC model: mRNA expression of renal proximal tubule cell injury marker LCN2; format: in vivo, male C57BL/6J WT mice; conditions: DDC cholestatic mice, s.c. elobixibat versus vehicle, 14 days (FIG. 7)
Text: as §1
as §2, with “Blood, urine, tissue samples and 3-day fecal samples were collected at day 14.” left out

[3] = subcutaneous administration (FIG. 1)

clearance ([1]; intravenous administration (FIG. 1)): quick clearance | bioavailability [1, 3]: high bioavailability | duration of constant exposure [1, 3]: more than 24 hours
Compound: CCCCC1(CCCC)CN(c2ccccc2)c2cc(SC)c(OCC(=O)N[C@@H](C(=O)NCC(=O)O)c3ccccc3)cc2S(=O)(=O)C1 [elobixibat, 1,1-dioxo-3,3-dibutyl-5-phenyl-7-methylthio-8-(N-{(R)-1′-phenyl-1′-[N′-(carboxymethyl)-carbamoyl]methyl}carbamoylmethoxy)-2,3,4,5-tetrahydro-1,5-benzothiazepine]
serum alkaline phosphatase (ALP) levels (DDC mice; s.c. once daily 0.3, 1.0 or 3.0 mg/kg for 14 days (FIG. 5)): dose-dependent trend towards reduced | serum bile acids (DDC mice; s.c. once daily 0.3, 1.0 or 3.0 mg/kg for 14 days, reduced at lowest dose, no additional reduction at higher doses (FIG. 3)): statistically significant reduction | serum total bilirubin (DDC mice; s.c. once daily 0.3, 1.0 or 3.0 mg/kg for 14 days, reduced at lowest dose, no additional reduction at higher doses (FIG. 4)): statistically significant reduction | mRNA expression for KIM-1 [2]: reduced | mRNA expression for LCN2 (LCN2 (lipocalin-2)): reduced

Source: patent publication US20230338392A1, “SUBCUTANEOUS ADMINISTRATION OF AN ASBT INHIBITOR” (Albireo AB, priority 2022, published 2023)
